Patent US20100196355A1, “Immunophilin Ligands and Methods for Modulating Immunophilin and Calcium Channel Activity” (Wyeth, priority 2007, published 2010)
“Also recorded” adds a separate entry of the source.

What was measured:
[1] = tested on: CACNB1; assay: Affinity chromatography on Compound 2 matrix (SDS-PAGE); assay type: binding, human; details: protein retained on compound beads vs blank beads
Source text: The His6-CACNB1: […] were generated from pDEST17-CACNB1 using QuikChange site-directed mutagenesis kit (Stratagene, LaJolla, Calif.). The His6 tagged protein was purified on a Ni-NTA column (Qiagen, Valencia, Calif.). […] J. Biol. Chem. 281, 14961-14970 (2006).

[2] = tested on: His6-tagged FKBP52; assay: [3H]-FK506 binding on Ni-chelated FLASH plate; design: species or system human; details: for binding selectivity for FKBP52 versus FKBP12, higher than that of rapamycin: relative to rapamycin
Method: Reactions were carried out in triplicate at 25° C. for 30 min. Kd were calculated using methods described by Carreras (Anal. Biochem. 298, 57-61 (2001)).

[3] = target: T1, β1 subunit (CACNB1) of the voltage gated L-type calcium channel (Mus musculus, UniProt Q8R3Z5); assay: Affinity precipitation from F-11 cell lysate, FT-ICR-MS and Western analysis; assay type: binding, rat and mouse hybrid
T1 construct: endogenous in cells; host or cells: F-11 cells (rat DRG x mouse neuroblastoma hybrid), lysate
T1 sequence (Q8R3Z5 1-479 isoform Q8R3Z5-3): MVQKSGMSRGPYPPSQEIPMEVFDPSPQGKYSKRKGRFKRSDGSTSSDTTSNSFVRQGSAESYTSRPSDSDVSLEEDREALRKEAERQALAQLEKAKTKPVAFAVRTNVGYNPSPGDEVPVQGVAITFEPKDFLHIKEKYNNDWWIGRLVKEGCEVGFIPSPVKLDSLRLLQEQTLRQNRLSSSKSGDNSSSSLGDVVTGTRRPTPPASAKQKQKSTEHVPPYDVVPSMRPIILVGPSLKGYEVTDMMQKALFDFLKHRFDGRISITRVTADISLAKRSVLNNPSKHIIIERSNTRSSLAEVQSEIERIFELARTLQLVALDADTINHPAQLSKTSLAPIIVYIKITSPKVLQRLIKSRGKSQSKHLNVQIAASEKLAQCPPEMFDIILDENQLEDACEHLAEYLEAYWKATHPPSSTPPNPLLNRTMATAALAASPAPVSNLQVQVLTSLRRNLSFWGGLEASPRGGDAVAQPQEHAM
Method: (§1) Briefly, the amino group of amino-phenyl-butyric acid (1200 mg) was protected with an allyloxycarbonyl group by treating with diallyldicarbonate ([…]) in dioxane:water (3:1; 50 ml) for 3 h at room temperature.
(§2) The reaction was quenched with methanol and the ester product was purified by HPLC with a purity of 99% and characterized by MS and NMR. After removing the allyloxycarbonyl group of the ester product (40 mg) by treatment with Pd(PPh3)4 (2 mg) and dimedone (7 mg) in THF (1.2 ml), the amino group of the product was linked to Affigel-10 matrix (4 ml) in the presence of 2% pyridine in THF.
(§3) F11 cells were grown in culture medium, DMEM supplemented with 10% FBS and 1% pen/Strep, in 75 cm^2 vented flasks in 37° C. incubator with 5% CO2. Cells were harvested at 80% confluence and washed with PBS buffer. Lysis buffer (6 ml; 50 mM Tris, pH 7.4, 250 mM NaCl, 5 mM EDTA, 50 mM NaF, 1 mM Na3VO4, 1% Nonidet P40 (NP40), 0.1% mercaptoethanol and 2% protease inhibitor cocktails) was added to 10^9 cells. Cells were broken by forcing them through a 26-gauge needle, and S-100 supernatant was collected after 15 min centrifugation at 4° C. […] After washes with lysis buffer (2 ml) and then PBS (2 ml), the beads were analyzed on 4-20% SDS-PAGE gel. […] The protein bands (FIG. 3) were cut out and digested with trypsin (0.3 ng) in digestion buffer (30 μl; 0.2% NH4HCO3) at 30° C. overnight. The resulting peptides were purified on C18-resin and submitted for FT-ICR-MS analysis. The FT-ICR-MS data was manually edited and used to search protein databases. The results are shown in FIG. 4 and have the following scores. FK506-binding protein (FKBP52) (P30416, score: 94, expect: 9.6e-05); MS Data of the 59 kDa band: 2753.35; 1710.94; 2215.13; 2363.15; 1298.71; 1215.59; 1000.51; 1000.46; 1790.93; 1381.70; 2746.36; 1316.71; and 1171.60. Voltage dependent L-type calcium channel β1 subunit (Q8R3Z5-03-00-00, score: 133, expect: 1e-09); MS Data of the 52 kDa band: 651.38; 663.39; 779.54; 853.55; 1014.50; 1347.75; 1217.78; 1346.67; 1297.75; 1231.77; 877.52; 853.47; 919.48; 1014.56; 1041.63; 1217.74; 1231.74; 1296.84; 869.58 (major).
(§4) In another experiment, F11 cells were grown in culture medium, DMEM supplemented with 10% FBS and 1% Pen/Strep, in 75 cm^2 vented flasks in a 37° C. incubator with 5% CO2. Cells were harvested at 80% confluence and washed with PBS buffer. To 3×10^8 cells, lysis buffer (2 ml; 50 mM Tris, pH 7.4, 250 mM NaCl, 5 mM EDTA, 50 mM NaF, 1 mM Na3VO4, 1% Nonidet P40, 0.1% mercaptoethanol and 2% protease inhibitor cocktails) was added, and its S-100 supernatant was collected after 15 min centrifugation at 4° C. […] After wash with lysis buffer (2 ml) and then PBS buffer (2 ml), beads were analyzed by SDS-PAGE. […]

[4] = target: T2, FKBP52 (Mus musculus, UniProt P30416); assay: as above; assay type: binding, rat and mouse hybrid
T2 construct: endogenous in cells; host or cells: F-11 cells (rat DRG x mouse neuroblastoma hybrid), lysate
T2 sequence (P30416 whole entry): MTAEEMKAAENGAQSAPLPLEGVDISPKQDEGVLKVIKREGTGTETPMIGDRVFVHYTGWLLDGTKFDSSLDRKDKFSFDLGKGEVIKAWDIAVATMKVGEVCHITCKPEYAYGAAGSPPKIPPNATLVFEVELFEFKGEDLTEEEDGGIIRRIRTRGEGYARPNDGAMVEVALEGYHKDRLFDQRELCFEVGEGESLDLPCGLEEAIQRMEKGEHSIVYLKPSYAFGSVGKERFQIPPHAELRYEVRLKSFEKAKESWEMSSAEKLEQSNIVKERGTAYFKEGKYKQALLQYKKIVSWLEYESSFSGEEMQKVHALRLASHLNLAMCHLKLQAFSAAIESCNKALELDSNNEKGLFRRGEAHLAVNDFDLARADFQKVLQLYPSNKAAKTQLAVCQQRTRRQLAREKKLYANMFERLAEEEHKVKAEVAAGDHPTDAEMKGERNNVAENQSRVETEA
Method: as §1, §2, §3, §4

[5] = target: T3, FKBP52-rapamycin analogue I-Ca2+ channel β1 subunit complex (Mus musculus, UniProt P30416+Q8R3Z5); assay: Co-immunoprecipitation of complex from F11 cell lysate; assay type: binding, rat and mouse hybrid
T3 construct: endogenous in cells; host or cells: F11 cell lysate
T3 sequence (P30416 whole entry): as above
T3 sequence (Q8R3Z5 1-479 isoform Q8R3Z5-3): as the sequence (Q8R3Z5 1-479 isoform Q8R3Z5-3) above
Method: Anti-FKBP52 antibody was added at 1:200 dilution to each aliquot and incubated at 4° C. for 5 h. Protein A beads ([…]) were then added to precipitate the anti-FKBP52-antibody-associated complex. The proteins immunoprecipitated on the beads were washed with PBS buffer, separated on 4-20% SDS-PAGE gel, transferred to PVDF, and immunoblotted with anti-Ca^2+ channel β1 subunit antibody (1:500 dilution) to detect the β1 subunit.

Row | SMILES | binding to CACNB1 [1] | Kd(FKBP12)/Kd(FKBP52) [2] | binding selectivity for FKBP52 versus FKBP12, higher than that of rapamycin [2] [fold] | binding selectivity for FKBP52 versus FKBP12, higher than that of rapamycin ([2]; listed as rapamycin analogue II) | L-type calcium channel β1 subunit (CACNB1) in affinity bead fraction [3] | FKBP52 in affinity bead fraction [4] | Ca2+ channel β1 subunit co-immunoprecipitated with FKBP52 ([5]; 5 μM) | Ca2+ channel β1 subunit co-immunoprecipitated with FKBP52 ([5]; 50 μM)
1 | CO[C@H]1C[C@@H]2CC[C@@H](C)[C@@](O)(O2)C(=O)C(=O)N2CCCCC2C(=O)O[C@H]([C@H](C)C[C@@H]2CC[C@@H](O)[C@H](OC)C2)CC(=O)[C@H](C)/C=C(\C)[C@@H](O)[C@@H](OC)C(=O)[C@H](C)C[C@H](C)C2CC[C@H](/C=C/1C)ON2c1ccccc1 (stereo partly shown) [Rapamycin analogue II, 9,27-dihydroxy-3-{2-[4-hydroxy-3-methoxycyclohexyl]-1-methylethyl}-10,21-dimethoxy-6,8,12,14,20,26-hexamethyl-37-phenyl-4,9,10,12,13,14,15,16,17,18,21,22,23,24,25,26,27,32,33,34,34a-henicosahydro-3H-23,27-epoxy-18,15-(epoxyimino)pyrido[2,1-c][1,4]oxazacyclohentriacontine-1,5,11,28,29(6H, 31H)-pentone] | binds | 229 | 687 | at least 600 fold | major targets | major targets |  | 
2 | CO[C@H]1C[C@@H]2CC[C@@H](C)[C@@](O)(O2)C(=O)C(=O)N2CCCCC2C(=O)O[C@H]([C@H](C)C[C@@H]2CC[C@@H](O)[C@H](OC)C2)CC(=O)[C@H](C)/C=C(\C)[C@@H](O)[C@@H](OC)C(=O)[C@H](C)C[C@H](C)C2C=C[C@H](/C=C/1C)ON2c1ccccc1 (stereo partly shown) [Rapamycin analogue I, 9,27-dihydroxy-3-{2-[4-hydroxy-3-methoxycyclohexyl]-1-methylethyl}-10,21-dimethoxy-6,8,12,14,20,26-hexamethyl-37-phenyl-4,9,10,12,13,14,15,18,21,22,23,24,25,26,27,32,33,34,34a-nonadecahydro-3H-23,27-epoxy-18,15-(epoxyimino)pyrido[2,1-c][1,4]oxazacyclohentriacontine-1,5,11,28,29(6H, 31H)-pentone] |  |  |  |  | major targets; also recorded: detected | major targets; also recorded: detected | large amount | reduced the amount of precipitated β1 subunit
